# From patent US11155525B2 (Sanford Burnham Prebys Medical Discovery Institute, priority 2015, dated 2021)
# Biological target: T1, human apelin receptor (Homo sapiens, UniProt P35414)
# T1 construct: host or cells: CHO cells
# T1 sequence (P35414 1-380): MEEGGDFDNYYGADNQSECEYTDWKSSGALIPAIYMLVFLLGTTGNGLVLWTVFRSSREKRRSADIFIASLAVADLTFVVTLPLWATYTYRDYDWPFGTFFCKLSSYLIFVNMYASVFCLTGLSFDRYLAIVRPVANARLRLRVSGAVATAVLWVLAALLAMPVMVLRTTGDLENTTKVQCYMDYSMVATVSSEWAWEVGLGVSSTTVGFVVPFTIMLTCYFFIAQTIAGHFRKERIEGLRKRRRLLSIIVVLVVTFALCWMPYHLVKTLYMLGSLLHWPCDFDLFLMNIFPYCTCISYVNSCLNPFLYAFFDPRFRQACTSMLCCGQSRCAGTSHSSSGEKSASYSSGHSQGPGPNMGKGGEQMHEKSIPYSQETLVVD
# Experiment: Measurement of apelin receptor agonist activity (cell-based assay determining the amount of intracellular cAMP)
# Details: CHO cells stably expressing the human apelin receptor, Forskolin 10 μM, 30 minutes, 100% efficacy = [Pyr1]-apelin-13 0.300 μM, concentration giving 50% efficacy
# Protocol: Measurement of Apelin Receptor Agonist Activity
# The apelin receptor agonist activity of the compound represented by formula (I) or (II) of the present invention was measured by cell-based assay for determining the amount of intracellular cAMP.
# CHO cells (DiscoveRx Corp.) stably expressing the human apelin receptor were inoculated to wells of a microtiter plate and cultured overnight at 37° C. under conditions of 5% CO2.
# Each test compound and Forskolin were added to the wells at the same time. Specifically, the test compound dissolved in DMSO was diluted with a Forskolin-containing buffer [DMEM/F-12, HEPES, no phenol red (#11039, GIBCO)] to prepare a mixed solution containing the test compound at a final concentration of […] (common ratio: 3, serial dilution: 11), Forskolin at a final concentration of 10 μM, and DMSO at a final concentration of 0.3% v/v, which was then added to the wells (N═4).
# After 30 minutes, the cells were lysed, and HitHunter cAMP XS+ Assay #90-0075L (DiscoveRx Corp.) was added to the cell lysate. The mixture was left overnight, and the resulting chemiluminescence signals were then detected using Analyst GT (Molecular Devices LLC.) to determine the amount of cAMP.
# The amount of cAMP determined by the addition of a positive control [Pyr1]-apelin-13 (final concentration: 0.300 μM) and Forskolin (final concentration: 10 μM) at the same time was used as an index to define 100% efficacy. The amount of cAMP determined by the addition of Forskolin (final concentration: 10 μM) alone was used as an index to define 0% efficacy.
# A dose response curve was prepared from the final concentration of the test compound and the determined amount of cAMP using Sigmaplot 12.0.
row,Structure (SMILES),EC50 [nM]
1,"COC(=O)C(Sc1nnc(-c2ccc(C)o2)n1-c1c(OC)cccc1OC)c1ccccn1 (racemic) [Example 89, Methyl {[4-(2,6-dimethoxyphenyl)-5-(5-methylfuran-2-yl)-4H-1,2,4-triazol-3-yl]sulfanyl}(pyridin-2-yl)acetate]",261
2,"COc1cccc(OC)c1-n1cnnc1-c1ccc(C)o1 [Example 6, 4-(2,6-Dimethoxyphenyl)-3-(5-methylfuran-2-yl)-4H-1,2,4-triazole]",703
3,"COc1cccc(OC)c1-n1c(CO)nnc1-c1ccc(C)o1 [Example 7, [4-(2,6-Dimethoxyphenyl)-5-(5-methylfuran-2-yl)-4H-1,2,4-triazol-3-yl]methanol]",815
4,"CCOC(=O)/C=C/c1nnc(-c2ccc(C)o2)n1-c1c(OC)cccc1OC [Example 8, Ethyl (2E)-3-[4-(2,6-dimethoxyphenyl)-5-(5-methylfuran-2-yl)-4H-1,2,4-triazol-3-yl]prop-2-enoate]",1570
5,"COc1cccc(OC)c1-n1c(S)nnc1-c1cccs1 [Example 10, 4-(2,6-Dimethoxyphenyl)-5-(thiophen-2-yl)-4H-1,2,4-triazole-3-thiol]",192
6,"CCOC(=O)CCc1nnc(-c2ccc(C)o2)n1-c1c(OC)cccc1OC [Example 12, Ethyl 3-[4-(2,6-dimethoxyphenyl)-5-(5-methylfuran-2-yl)-4H-1,2,4-triazol-3-yl]propanoate]",701
7,"COc1cccc(OC)c1-n1c(SCc2cc(=O)[nH]c(=O)[nH]2)nnc1-c1ccc(C)o1 [Example 14, 6-({[4-(2,6-Dimethoxyphenyl)-5-(5-methylfuran-2-yl)-4H-1,2,4-triazol-3-yl]sulfanyl}methyl)pyrimidine-2,4(1H,3H)-dione]",424
8,"COc1cccc(OC)c1-n1c(SCc2cc(=O)n3nccc3[nH]2)nnc1-c1ccc(C)o1 [Example 16, 5-({[4-(2,6-Dimethoxyphenyl)-5-(5-methylfuran-2-yl)-4H-1,2,4-triazol-3-yl]sulfanyl}methyl)pyrazolo[1,5-a]pyrimidin-7(4H)-one]",314
9,"CCc1nnc(-c2ccc(C)o2)n1-c1c(OC)cccc1OC [Example 17, 4-(2,6-Dimethoxyphenyl)-3-ethyl-5-(5-methylfuran-2-yl)-4H-1,2,4-triazole]",1410
10,"COc1cccc(OC)c1-n1c(SCc2cc[nH]c(=O)c2)nnc1-c1ccc(C)o1 [Example 18, 4-({[4-(2,6-Dimethoxyphenyl)-5-(5-methylfuran-2-yl)-4H-1,2,4-triazol-3-yl]sulfanyl}methyl)pyridin-2(1H)-one]",561
11,"COc1cccc(OC)c1-n1c(/C=C/C(N)=O)nnc1-c1ccc(C)o1 [Example 19, (2E)-3-[4-(2,6-Dimethoxyphenyl)-5-(5-methylfuran-2-yl)-4H-1,2,4-triazol-3-yl]prop-2-enamide]",171
12,"COc1cccc(OC)c1-n1c(/C=C/C(C)=O)nnc1-c1ccc(C)o1 [Example 20, (3E)-4-[4-(2,6-Dimethoxyphenyl)-5-(5-methylfuran-2-yl)-4H-1,2,4-triazol-3-yl]but-3-en-2-one]",729
13,"COc1cccc(OC)c1-n1c(/C=C/C(=O)N(C)C)nnc1-c1ccc(C)o1 [Example 21, (2E)-3-[4-(2,6-Dimethoxyphenyl)-5-(5-methylfuran-2-yl)-4H-1,2,4-triazol-3-yl]-N,N-dimethylprop-2-enamide]",539
14,"COc1cccc(OC)c1-n1c(/C=C/C(C)O)nnc1-c1ccc(C)o1 (centres unmarked) [Example 23, (3E)-4-[4-(2,6-Dimethoxyphenyl)-5-(5-methylfuran-2-yl)-4H-1,2,4-triazol-3-yl]but-3-en-2-ol]",271
15,"COc1cccc(OC)c1-n1c(CCC(C)=O)nnc1-c1ccc(C)o1 [Example 24, 4-[4-(2,6-Dimethoxyphenyl)-5-(5-methylfuran-2-yl)-4H-1,2,4-triazol-3-yl]butan-2-one]",751
16,"COc1cccc(OC)c1-n1c(CCC(C)O)nnc1-c1ccc(C)o1 (centres unmarked) [Example 25, 4-[4-(2,6-Dimethoxyphenyl)-5-(5-methylfuran-2-yl)-4H-1,2,4-triazol-3-yl]butan-2-ol]",1720
17,"COc1cccc(OC)c1-n1c(SCC(=O)O)nnc1-c1cccnc1 [Example 27, {[4-(2,6-Dimethoxyphenyl)-5-(pyridin-3-yl)-4H-1,2,4-triazol-3-yl]sulfanyl}acetic acid]",2870
18,"COc1cccc(OC)c1-n1c(SCC(=O)O)nnc1-c1ccccc1 [Example 28, {[4-(2,6-Dimethoxyphenyl)-5-phenyl-4H-1,2,4-triazol-3-yl]sulfanyl}acetic acid]",1420

# The next molecules have a lower EC50 than those just listed; values first:
row,EC50 [nM],Structure (SMILES)
1,164,"COc1cccc(OC)c1-n1c(SCc2cc(=O)n(C)c(=O)n2C)nnc1-c1ccc(C)o1 [Example 15, 6-({[4-(2,6-Dimethoxyphenyl)-5-(5-methylfuran-2-yl)-4H-1,2,4-triazol-3-yl]sulfanyl}methyl)-1,3-dimethylpyrimidine-2,4(1H,3H)-dione]"
2,159,"COc1cccc(OC)c1-n1c(CCC(=O)O)nnc1-c1ccc(C)o1 [Example 13, 3-[4-(2,6-Dimethoxyphenyl)-5-(5-methylfuran-2-yl)-4H-1,2,4-triazol-3-yl]propanoic acid]"
3,122,"CCOC(=O)CSc1nnc(-c2ccc(C)o2)n1-c1c(OC)cccc1OC [Example 4, Ethyl {[4-(2,6-dimethoxyphenyl)-5-(5-methylfuran-2-yl)-4H-1,2,4-triazol-3-yl]sulfanyl}acetate]"
4,87,"COc1cccc(OC)c1-n1c(SCCCC(=O)O)nnc1-c1ccc(C)o1 [Example 22, 4-{[4-(2,6-Dimethoxyphenyl)-5-(5-methylfuran-2-yl)-4H-1,2,4-triazol-3-yl]sulfanyl}butanoic acid]"
5,57,"COc1cccc(OC)c1-n1c(SCC(=O)O)nnc1-c1ccc(Br)o1 [Example 26, {[5-(5-Bromofuran-2-yl)-4-(2,6-dimethoxyphenyl)-4H-1,2,4-triazol-3-yl]sulfanyl}acetic acid]"
6,31,"COc1cccc(OC)c1-n1c(S)nnc1-c1ccc(C)o1 [Example 1, 4-(2,6-Dimethoxyphenyl)-5-(5-methylfuran-2-yl)-4H-1,2,4-triazole-3-thiol]"
7,26,"COc1cccc(OC)c1-n1c(SCC(=O)O)nnc1-c1ccc(C)o1 [Example 5, {[4-(2,6-Dimethoxyphenyl)-5-(5-methylfuran-2-yl)-4H-1,2,4-triazol-3-yl]sulfanyl}acetic acid]"
8,18,"COc1cccc(OC)c1-n1c(/C=C/C(=O)O)nnc1-c1ccc(C)o1 [Example 9, (2E)-3-[4-(2,6-Dimethoxyphenyl)-5-(5-methylfuran-2-yl)-4H-1,2,4-triazol-3-yl]prop-2-enoic acid]"
9,5,COc1cccc(OC)c1-n1c(SCc2cc(=O)n3cc(C)ccc3n2)nnc1-c1cccs1 [Example 11]
10,2,"COc1cccc(OC)c1-n1c(SCc2cc(=O)n3cc(Cl)ccc3n2)nnc1-c1ccc(C)o1 [Example 3, 7-Chloro-2-({[4-(2,6-dimethoxyphenyl)-5-(5-methylfuran-2-yl)-4H-1,2,4-triazol-3-yl]sulfanyl}methyl)-4H-pyrido[1,2-a]pyrimidin-4-one]"
11,1,"COc1cccc(OC)c1-n1c(SCc2cc(=O)n3cc(C)ccc3n2)nnc1-c1ccc(C)o1 [Example 2, 2-({[4-(2,6-Dimethoxyphenyl)-5-(5-methylfuran-2-yl)-4H-1,2,4-triazol-3-yl]sulfanyl}methyl)-7-methyl-4H-pyrido[1,2-a]pyrimidin-4-one]"
